In this experiment the target is T1, human P2X7 (Homo sapiens, UniProt Q99572).
T1 construct: 1321N1 cells stably expressing the full length human P2X7 gene (1321N1-hP2X7)
T1 sequence (Q99572 1-595): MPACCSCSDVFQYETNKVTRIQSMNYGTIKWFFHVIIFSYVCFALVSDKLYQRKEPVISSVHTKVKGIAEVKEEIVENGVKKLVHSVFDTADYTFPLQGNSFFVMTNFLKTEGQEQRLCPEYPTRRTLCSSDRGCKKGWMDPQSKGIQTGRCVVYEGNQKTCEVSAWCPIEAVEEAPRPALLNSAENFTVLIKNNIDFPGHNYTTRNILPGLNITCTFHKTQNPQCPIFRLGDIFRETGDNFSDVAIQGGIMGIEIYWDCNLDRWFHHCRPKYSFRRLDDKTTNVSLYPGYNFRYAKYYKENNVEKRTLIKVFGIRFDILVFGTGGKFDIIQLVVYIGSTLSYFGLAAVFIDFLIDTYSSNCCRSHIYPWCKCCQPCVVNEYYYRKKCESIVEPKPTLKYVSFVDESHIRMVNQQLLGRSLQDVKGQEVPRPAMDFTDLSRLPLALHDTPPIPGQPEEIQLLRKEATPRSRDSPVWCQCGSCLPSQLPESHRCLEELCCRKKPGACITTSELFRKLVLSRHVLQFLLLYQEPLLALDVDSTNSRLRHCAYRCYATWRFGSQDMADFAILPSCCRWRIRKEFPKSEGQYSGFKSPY
Nature of the experiment: P2X7 modulator pIC50 of Table 1 (assay not given; Intracellular Calcium Flux (FLIPR) Assay assumed). Type of experiment: cell-based. The method, then:
Intracellular Calcium Flux (FLIPR) Assay
Stock solutions of compounds were prepared from powders as a 10 mM DMSO stock solution. These solutions were stored at RT during the two week period of these experiments to prevent freeze-thaw of the DMSO stocks. The DMSO stocks were added to the appropriate assay buffer at a concentration of 10 μM, and then diluted serially to the final concentrations that were tested. No observable precipitate was formed at any time during this process. The aqueous solutions of compounds as well as ATP (Sigma A7699) and BzATP (Sigma B6396) were prepared fresh for each day of experiment.
1321N1 cells stably expressing the full length human P2X7 gene (1321N1-hP2X7) and HEK293 cells stably expressing the full length rat P2X7 gene (HEK293-rP2X7) were obtained from the Roche Cell Culture Facility. 1321N1-hP2X7 cells were grown in Dulbecco's Modified Eagle's Medium (DMEM) high glucose supplemented with 10% FBS and 250 μg/mL G418. HEK293-rP2X7 cells were grown in DMEM/F-12 supplemented with 10% FBS, 1 mM CaCl2, 2 mM MgCl2, 2 mM L-Glutamine and 500 μg/ml G418. Cells were split such that they never became >70% confluent.
On the day prior to the experiment, 1321N1-hP2X7 or HEK293-rP2X7 cells were released into suspension with calcium-free PBS+Versene and washed by centrifugation with calcium-free PBS to remove the Versene. Cells were resuspended in growth medium at a density of 2.5×10^5 cells/mL and seeded into black walled, clear bottom 96 well plates (50,000 cells/well) approximately 18 hr prior to intracellular calcium flux experiments.
On the day of the experiment, plates were washed with FLIPR buffer (calcium- and magnesium-free Hank's Balanced Salt Solution (HBSS) supplemented with 10 mM Hepes, 2.5 mM probenecid and 2 mM calcium chloride) using a BIO-TEK 96 channel plate washer and incubated with […] fluo-3 dye at 37° C. for one hr. The dye was then removed by plate washing and the cells were allowed to equilibrate for 20 min at room temperature with antagonist or vehicle (FLIPR buffer). Agonist (100 μM BzATP final concentration for hP2X7; 5μM BzATP final concentration or rP2X7) was added online with the FLIPR and fluorescence measurements made at 1 sec intervals for 60 sec followed by 3 sec intervals for a further 4 min (5 min total). A final addition of 5 μM ionomycin was made and the maximal BzATP-evoked fluorescence normalized to the maximal ionomycin-evoked fluorescence.
In general terms: Calcium flux is commonly read through the fluorescence of an indicator in the cells.
The IC50 is the midpoint of a concentration-inhibition curve. As to `COc1cc(C)c(NC(=O)C2=CNC(=O)NC2c2ccc(F)cc2)cc1OC` (stereo not drawn) [Compound 1, 4-(4-Fluoro-phenyl)-2-oxo-1,2,3,4-tetrahydro-pyrimidine-5-carboxylic acid (4,5-dimethoxy-2-methyl-phenyl)-amide], the IC50 is 0.0347 µM.
In the case of `COc1cc(C)c(NC(=O)C2=CN(C)C(=O)NC2c2ccc(F)cc2)cc1OC` (stereo not drawn) [Compound 2, 4-(4-Fluoro-phenyl)-1-methyl-2-oxo-1,2,3,4-tetrahydro-pyrimidine-5-carboxylic acid (4,5-dimethoxy-2-methyl-phenyl)-amide], the 50% inhibitory concentration (IC50) was 0.0412 µM.
Take `Cc1cc(-c2ccc(C)c(NC(=O)C3=CNC(=O)N[C@@H]3c3ccc(F)cc3)c2)n[nH]1` [Compound 3, (R)-4-(4-Fluoro-phenyl)-2-oxo-1,2,3,4-tetrahydro-pyrimidine-5-carboxylic acid [2-methyl-5-(5-methyl-1H-pyrazol-3-yl)-phenyl]-amide]: the 50% inhibitory concentration (IC50) is 0.173 µM.
Consider `COc1cc(C)c(NC(=O)C2=CNC(=O)N[C@H]2c2ccc(F)cc2)cc1OC` [Compound 4, (S)-4-(4-Fluoro-phenyl)-2-oxo-1,2,3,4-tetrahydro-pyrimidine-5-carboxylic acid (4,5-dimethoxy-2-methyl-phenyl)-amide], for which the half-inhibitory concentration (IC50) was 0.0598 µM.
In the case of `Cc1cc(-c2ccc(C)c(NC(=O)C3=CNC(=O)N[C@H]3c3ccc(F)cc3)c2)n[nH]1` [Compound 5, (S)-4-(4-Fluoro-phenyl)-2-oxo-1,2,3,4-tetrahydro-pyrimidine-5-carboxylic acid [2-methyl-5-(5-methyl-1H-pyrazol-3-yl)-phenyl]-amide] it was 0.0197 µM.
Turning to `COc1cc(C)c(NC(=O)C2=CN(C)C(=O)N[C@H]2c2ccc(F)cc2)cc1OC` [Compound 6, (S)-4-(4-Fluoro-phenyl)-1-methyl-2-oxo-1,2,3,4-tetrahydro-pyrimidine-5-carboxylic acid (4,5-dimethoxy-2-methyl-phenyl)-amide], the IC50 is 0.0351 µM.
The value for `Cc1cc(-c2ccc(C)c(NC(=O)C3=CN(C)C(=O)N[C@H]3c3ccc(F)cc3)c2)n[nH]1` [Compound 7, (S)-4-(4-Fluoro-phenyl)-1-methyl-2-oxo-1,2,3,4-tetrahydro-pyrimidine-5-carboxylic acid [2-methyl-5-(5-methyl-1H-pyrazol-3-yl)-phenyl]-amide] was 0.0351 µM; that for `Cc1cc(Cl)c(OCCO)cc1NC(=O)C1=CN(C)C(=O)N[C@H]1c1ccc(F)cc1` [Compound 8, (S)-4-(4-Fluoro-phenyl)-1-methyl-2-oxo-1,2,3,4-tetrahydro-pyrimidine-5-carboxylic acid [4-chloro-5-(2-hydroxy-ethoxy)-2-methyl-phenyl]-amide] was 0.0229 µM; that for `COc1cc(C)c(NC(=O)C2=CN(C)C(=O)N(C)C2c2ccc(F)cc2)cc1OC` (stereo not drawn) [Compound 9, 4-(4-Fluoro-phenyl)-1,3-dimethyl-2-oxo-1,2,3,4-tetrahydro-pyrimidine-5-carboxylic acid (4,5-dimethoxy-2-methyl-phenyl)-amide] was 0.196 µM.
For the molecule `COc1cc(C)c(NC(=O)C2=CNC(=O)N[C@@H]2c2ccc(F)cc2)cc1OC` [Compound 10, (R)-4-(4-Fluoro-phenyl)-2-oxo-1,2,3,4-tetrahydro-pyrimidine-5-carboxylic acid (4,5-dimethoxy-2-methyl-phenyl)-amide], the 50% inhibitory concentration (IC50) is 0.359 µM.
As for `Cc1ccc2ncccc2c1NC(=O)C1=CN(C)C(=O)N[C@H]1c1ccc(F)cc1` [Compound 11, (S)-4-(4-Fluoro-phenyl)-1-methyl-2-oxo-1,2,3,4-tetrahydro-pyrimidine-5-carboxylic acid (6-methyl-quinolin-5-yl)-amide], the half-maximal inhibitory concentration (IC50) is 0.12 µM.
As for `COc1cc(C)c(NC(=O)C2=CN(CCO)C(=O)NC2c2ccc(F)cc2)cc1OC` (stereo not drawn) [Compound 12, 4-(4-Fluoro-phenyl)-1-(2-hydroxy-ethyl)-2-oxo-1,2,3,4-tetrahydro-pyrimidine-5-carboxylic acid (4,5-dimethoxy-2-methyl-phenyl)-amide], the IC50 is 0.111 µM.
Consider `COc1cc(C)c(NC(=O)C2=CNC(=O)N(C)C2c2ccc(F)cc2)cc1OC` (stereo not drawn) [Compound 13, 4-(4-Fluoro-phenyl)-3-methyl-2-oxo-1,2,3,4-tetrahydro-pyrimidine-5-carboxylic acid (4,5-dimethoxy-2-methyl-phenyl)-amide], for which the IC50 is 0.0851 µM.
Take `Cc1cc(-c2ccc(C)c(NC(=O)C3=CN(C)C(=O)NC3c3cccc(F)c3)c2)n[nH]1` (stereo not drawn) [Compound 14, 4-(3-Fluoro-phenyl)-1-methyl-2-oxo-1,2,3,4-tetrahydro-pyrimidine-5-carboxylic acid [2-methyl-5-(5-methyl-1H-pyrazol-3-yl)-phenyl]-amide]: the IC50 was 0.0579 µM.
In the case of `Cc1cnn(-c2ccc(C)c(NC(=O)C3=CN(C)C(=O)N[C@H]3c3ccc(F)cc3)c2)c1` [Compound 15, (S)-4-(4-Fluoro-phenyl)-1-methyl-2-oxo-1,2,3,4-tetrahydro-pyrimidine-5-carboxylic acid [2-methyl-5-(4-methyl-pyrazol-1-yl)-phenyl]-amide] it was 0.0141 µM; in that of `Cc1cc(F)c(OCCO)cc1NC(=O)C1=CN(C)C(=O)N[C@H]1c1ccc(F)cc1` [Compound 16, (S)-4-(4-Fluoro-phenyl)-1-methyl-2-oxo-1,2,3,4-tetrahydro-pyrimidine-5-carboxylic acid [4-fluoro-5-(2-hydroxy-ethoxy)-2-methyl-phenyl]-amide], 0.00923 µM; in that of `CCN1C=C(C(=O)Nc2cc(OCCO)c(Cl)cc2C)[C@H](c2ccc(F)cc2)NC1=O` [Compound 17, (S)-1-Ethyl-4-(4-fluoro-phenyl)-2-oxo-1,2,3,4-tetrahydro-pyrimidine-5-carboxylic acid [4-chloro-5-(2-hydroxy-ethoxy)-2-methyl-phenyl]-amide], 0.024 µM.
For the molecule `Cc1ccc(-c2nnc(C)n2C)cc1NC(=O)C1=CN(C)C(=O)N[C@H]1c1ccc(F)cc1` [Compound 18, (S)-4-(4-Fluoro-phenyl)-1-methyl-2-oxo-1,2,3,4-tetrahydro-pyrimidine-5-carboxylic acid [5-(4,5-dimethyl-4H-[1,2,4]triazol-3-yl)-2-methyl-phenyl]-amide], the IC50 is 0.0221 µM.
In the case of `Cc1ccc(-c2cc(C)n(C[C@@H](O)CO)n2)cc1NC(=O)C1=CN(C)C(=O)N[C@H]1c1ccc(F)cc1` [Compound 19, (S)-4-(4-Fluoro-phenyl)-1-methyl-2-oxo-1,2,3,4-tetrahydropyrimidine-5-carboxylic acid {5-[1-((R)-2,3-dihydroxy-propyl)-5-methyl-1H-pyrazol-3-yl]-2-methyl-phenyl}-amide] it was 0.0229 µM.
In the case of `Cc1ccc2c(NC(=O)C3=CN(C)C(=O)N[C@H]3c3ccc(F)cc3)c(C)ccc2n1` [Compound 21, (S)-4-(4-Fluoro-phenyl)-1-methyl-2-oxo-1,2,3,4-tetrahydro-pyrimidine-5-carboxylic acid (2,6-dimethyl-quinolin-5-yl)-amide] it was 0.0881 µM.
Regarding `Cc1ccc(-c2ccnn(C)c2=O)cc1NC(=O)C1=CN(C)C(=O)N[C@H]1c1ccc(F)cc1` [Compound 22, (S)-4-(4-Fluoro-phenyl)-1-methyl-2-oxo-1,2,3,4-tetrahydro-pyrimidine-5-carboxylic acid [2-methyl-5-(2-methyl-3-oxo-2,3-dihydro-pyridazin-4-yl)-phenyl]-amide], the IC50 is 0.0115 µM.
